Data taken from patent publication US10072026B2, “Crystalline form of 3-((1R,3s,5S)-3-((7-((5-methyl-1H-pyrazol-3-yl)amino)-1,6-naphthyridin-5-yl)amino)-8-azabicyclo[3.2.1]octan-8-yl)propanenitrile” (priority 2015, dated 2018).

Key:
JAK2 = JAK2 (Homo sapiens (Human), UniProt O60674); experiment: LanthaScreen JAK biochemical assay (JAK2); conditions: for Ki: read-out: JAK 2 (pKi) (converted)
[1] = system: IL-4 induced STAT6 phosphorylation in THP-1 human monocytic cells; experiment: Cellular JAK potency assay, THP-1
[2] = system: IL-13 induced STAT6 phosphorylation in BEAS-2B human lung epithelial cells; experiment: AlphaScreen cellular JAK potency assay, BEAS-2B
JAK1 = JAK1 (Homo sapiens (Human), UniProt P23458); experiment: LanthaScreen JAK biochemical assay (JAK1); conditions: for Ki: read-out: JAK 1 (pKi) (converted)
[3] = THP-1 cells, IL-4 induced STAT6 phosphorylation
[4] = BEAS-2B cells, IL-13 induced STAT6 phosphorylation
[5] = IL-4 induced STAT6 phosphorylation, THP-1 cells
[6] = IL-13 induced STAT6 phosphorylation, BEAS-2B cells
[7] = Homo sapiens, THP-1, read-out: THP-1 IL4 pIC50 (converted)
[8] = Homo sapiens, BEAS-2B, read-out: BEAS2B pIC50 (converted)

JAK1, sequence (P23458 whole entry): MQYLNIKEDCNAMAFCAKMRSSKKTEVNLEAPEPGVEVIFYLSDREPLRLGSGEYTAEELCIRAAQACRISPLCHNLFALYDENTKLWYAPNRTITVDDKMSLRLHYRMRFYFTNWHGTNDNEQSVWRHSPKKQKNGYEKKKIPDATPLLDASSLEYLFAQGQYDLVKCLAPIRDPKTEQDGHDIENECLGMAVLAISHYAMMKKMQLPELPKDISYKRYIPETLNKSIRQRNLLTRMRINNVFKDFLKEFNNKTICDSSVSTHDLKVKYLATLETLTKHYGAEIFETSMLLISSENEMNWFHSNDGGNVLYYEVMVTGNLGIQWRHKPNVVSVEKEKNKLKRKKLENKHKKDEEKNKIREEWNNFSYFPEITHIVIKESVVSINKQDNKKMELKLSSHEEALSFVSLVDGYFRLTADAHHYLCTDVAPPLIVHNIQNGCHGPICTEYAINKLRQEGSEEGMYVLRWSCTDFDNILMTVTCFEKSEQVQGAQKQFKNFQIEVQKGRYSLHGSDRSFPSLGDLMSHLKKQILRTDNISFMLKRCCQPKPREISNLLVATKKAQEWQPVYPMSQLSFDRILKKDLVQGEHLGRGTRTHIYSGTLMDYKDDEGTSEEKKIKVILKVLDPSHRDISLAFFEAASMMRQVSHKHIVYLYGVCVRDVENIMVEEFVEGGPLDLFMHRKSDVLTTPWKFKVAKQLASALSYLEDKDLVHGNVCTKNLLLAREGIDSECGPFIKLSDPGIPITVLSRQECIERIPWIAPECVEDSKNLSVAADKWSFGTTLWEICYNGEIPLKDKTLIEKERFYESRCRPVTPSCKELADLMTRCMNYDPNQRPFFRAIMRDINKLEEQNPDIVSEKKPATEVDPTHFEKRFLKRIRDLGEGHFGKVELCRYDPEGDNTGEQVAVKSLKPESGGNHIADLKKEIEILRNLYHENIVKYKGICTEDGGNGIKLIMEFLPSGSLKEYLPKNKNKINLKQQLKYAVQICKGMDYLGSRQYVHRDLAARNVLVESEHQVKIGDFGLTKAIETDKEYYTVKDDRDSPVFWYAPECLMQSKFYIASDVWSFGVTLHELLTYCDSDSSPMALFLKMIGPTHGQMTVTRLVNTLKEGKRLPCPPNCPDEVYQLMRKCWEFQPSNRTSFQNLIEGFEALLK
JAK2, sequence (O60674 whole entry): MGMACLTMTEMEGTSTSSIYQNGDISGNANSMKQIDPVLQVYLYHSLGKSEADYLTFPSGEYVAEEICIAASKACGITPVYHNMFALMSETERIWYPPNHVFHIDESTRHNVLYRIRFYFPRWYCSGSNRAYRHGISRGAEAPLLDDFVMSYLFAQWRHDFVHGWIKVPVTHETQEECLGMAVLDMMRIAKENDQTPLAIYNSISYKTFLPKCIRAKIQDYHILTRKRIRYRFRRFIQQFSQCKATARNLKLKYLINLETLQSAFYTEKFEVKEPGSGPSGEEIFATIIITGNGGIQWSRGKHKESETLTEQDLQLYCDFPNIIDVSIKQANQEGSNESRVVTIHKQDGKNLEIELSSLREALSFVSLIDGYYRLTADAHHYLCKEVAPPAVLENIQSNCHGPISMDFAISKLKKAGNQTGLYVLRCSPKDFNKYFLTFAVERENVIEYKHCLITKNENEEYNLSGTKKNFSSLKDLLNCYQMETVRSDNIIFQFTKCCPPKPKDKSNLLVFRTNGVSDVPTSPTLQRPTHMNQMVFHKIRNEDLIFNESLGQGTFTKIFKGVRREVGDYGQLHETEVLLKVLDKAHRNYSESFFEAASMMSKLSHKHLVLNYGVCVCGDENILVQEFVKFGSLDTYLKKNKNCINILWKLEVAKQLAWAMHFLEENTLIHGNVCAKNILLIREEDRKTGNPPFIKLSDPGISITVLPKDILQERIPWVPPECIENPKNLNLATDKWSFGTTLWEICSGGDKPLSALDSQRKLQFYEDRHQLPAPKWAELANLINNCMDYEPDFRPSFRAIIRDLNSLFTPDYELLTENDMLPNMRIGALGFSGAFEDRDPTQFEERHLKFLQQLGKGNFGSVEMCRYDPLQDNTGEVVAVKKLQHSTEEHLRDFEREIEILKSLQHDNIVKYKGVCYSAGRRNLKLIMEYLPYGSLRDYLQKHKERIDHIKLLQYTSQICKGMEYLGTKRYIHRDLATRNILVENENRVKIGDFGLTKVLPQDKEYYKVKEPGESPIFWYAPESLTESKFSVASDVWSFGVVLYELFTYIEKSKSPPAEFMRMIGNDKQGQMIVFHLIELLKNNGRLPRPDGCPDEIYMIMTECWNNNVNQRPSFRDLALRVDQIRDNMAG

SMILES | JAK 2 (pKi) (JAK2) | THP-1 IL4 pIC50 [1, 3] | BEAS2B pIC50 [2, 4] | JAK 1 (pKi) (JAK1) | THP-1 IL4 pIC50 [1, 5] | BEAS2B pIC50 [2, 6] | Ki (JAK1) [nM] | Ki (JAK2) [nM] | IC50 [1, 7] [nM] | IC50 [2, 8] [nM]
COC(=O)c1cnc2cc(Nc3cc(C)[nH]n3)nc(N[C@@H]3C[C@H]4CC[C@@H](C3)N4CC(=O)OC(C)C)c2c1 [Example 6-41] | B (B represents a pKi value between 9 and 10 (Ki between 1 nM and 0.1 nM)) | A (A represents a pEC50 value≥7.5 (EC50≤32 nM)) | B (B represents a pEC50 value between 6.7 and 7.5 (EC50 between 200 nM and 32 nM)) |  |  |  |  |  |  | 
Cc1cc(Nc2cc3ncccc3c(N[C@@H]3C[C@H]4CC[C@@H](C3)N4Cc3ccncc3)n2)n[nH]1 [Example 1-17] | B (B represents a pKi value between 9 and 10 (Ki between 1 nM and 0.1 nM)) |  |  | B (B represents a pKi value between 9 and 10 (Ki between 1 nM and 0.1 nM)) | B (B represents a pEC50 value between 6.7 and 7.5 (EC50 between 200 nM and 32 nM)) | B (B represents a pEC50 value between 6.7 and 7.5 (EC50 between 200 nM and 32 nM)) |  |  |  | 
Cc1cc(Nc2cc3ncccc3c(N[C@@H]3C[C@H]4CCC[C@@H](C3)N4CCCF)n2)n[nH]1 [Example 1-40] | B (B represents a pKi value between 9 and 10 (Ki between 1 nM and 0.1 nM)) |  |  | B (B represents a pKi value between 9 and 10 (Ki between 1 nM and 0.1 nM)) | A (A represents a pEC50 value≥7.5 (EC50≤32 nM)) | A (A represents a pEC50 value≥7.5 (EC50≤32 nM)) |  |  |  | 
Cc1cc(Nc2cc3ncccc3c(N[C@@H]3C[C@H]4CC[C@@H](C3)N4C(C)CC#N)n2)n[nH]1 (some centres unmarked) [Example 1-21] | B (B represents a pKi value between 9 and 10 (Ki between 1 nM and 0.1 nM)) |  |  | B (B represents a pKi value between 9 and 10 (Ki between 1 nM and 0.1 nM)) | A (A represents a pEC50 value≥7.5 (EC50≤32 nM)) | B (B represents a pEC50 value between 6.7 and 7.5 (EC50 between 200 nM and 32 nM)) |  |  |  | 
Cc1cc(Nc2nc(N[C@@H]3C[C@H]4CCC[C@@H](C3)N4S(=O)(=O)c3cccnc3)c3cccnc3c2F)n[nH]1 [Example 8-12] | B (B represents a pKi value between 9 and 10 (Ki between 1 nM and 0.1 nM)) | A (A represents a pEC50 value≥7.5 (EC50≤32 nM)) | A (A represents a pEC50 value≥7.5 (EC50≤32 nM)) | B (B represents a pKi value between 9 and 10 (Ki between 1 nM and 0.1 nM)) |  |  |  |  |  | 
Cc1cc(Nc2cc3nc(CN4CCOCC4)ccc3c(N[C@@H]3C[C@H]4CCC[C@@H](C3)N4S(C)(=O)=O)n2)n[nH]1 [Example 5-22] | A (A represents a pKi value≥10 (Ki≤0.1 nM)) |  |  | A (A represents a pKi value≥10 (Ki≤0.1 nM)) | B (B represents a pEC50 value between 6.7 and 7.5 (EC50 between 200 nM and 32 nM)) | A (A represents a pEC50 value≥7.5 (EC50≤32 nM)) |  |  |  | 
COc1ccc2c(N[C@@H]3C[C@H]4CCC[C@@H](C3)N4CCC#N)nc(Nc3cc(C)[nH]n3)cc2n1 [Example 5-10] | A (A represents a pKi value≥10 (Ki≤0.1 nM)) |  |  | A (A represents a pKi value≥10 (Ki≤0.1 nM)) | A (A represents a pEC50 value≥7.5 (EC50≤32 nM)) | A (A represents a pEC50 value≥7.5 (EC50≤32 nM)) |  |  |  | 
CCN1CC(S(=O)(=O)N2[C@@H]3CC[C@H]2C[C@H](Nc2nc(Nc4cc(C)[nH]n4)cc4ncccc24)C3)C1 [Example 4-10] |  |  |  |  |  |  | 0.1 to 1 | 0.1 to 1 | 31.6 to 200 | 31.6 to 200
Cc1cc(Nc2cc3ncccc3c(N[C@@H]3C[C@H]4CC[C@@H](C3)N4CC(C)C#N)n2)n[nH]1 (some centres unmarked) [Example 1-23] | A (A represents a pKi value≥10 (Ki≤0.1 nM)) |  |  | A (A represents a pKi value≥10 (Ki≤0.1 nM)) | A (A represents a pEC50 value≥7.5 (EC50≤32 nM)) | A (A represents a pEC50 value≥7.5 (EC50≤32 nM)) |  |  |  | 
CCS(=O)(=O)N1[C@@H]2CC[C@H]1C[C@H](Nc1nc(Nc3cc(C)[nH]n3)cc3nccc(OC)c13)C2 [Example 7-2] |  |  |  |  |  |  | 0.1 to 1 | 0.1 to 1 | < 31.6 | < 31.6
Cc1cc(Nc2cc3ncccc3c(N[C@@H]3C[C@H]4CCC[C@@H](C3)N4Cc3cccnc3)n2)n[nH]1 [Example 1-47] | A (A represents a pKi value≥10 (Ki≤0.1 nM)) |  |  |  | A (A represents a pEC50 value≥7.5 (EC50≤32 nM)) | A (A represents a pEC50 value≥7.5 (EC50≤32 nM)) |  |  |  | 
Cc1cnc2c(F)c(Nc3cc(C)[nH]n3)nc(N[C@@H]3C[C@H]4CCC[C@@H](C3)N4S(C)(=O)=O)c2c1 [Example 8-22] | B (B represents a pKi value between 9 and 10 (Ki between 1 nM and 0.1 nM)) | B (B represents a pEC50 value between 6.7 and 7.5 (EC50 between 200 nM and 32 nM)) | B (B represents a pEC50 value between 6.7 and 7.5 (EC50 between 200 nM and 32 nM)) | B (B represents a pKi value between 9 and 10 (Ki between 1 nM and 0.1 nM)) |  |  |  |  |  | 
Cc1cc(Nc2cc3ncccc3c(N[C@@H]3C[C@H]4CCC[C@@H](C3)N4CCC#N)n2)n[nH]1 [Example 1-31] | A (A represents a pKi value≥10 (Ki≤0.1 nM)) |  |  | A (A represents a pKi value≥10 (Ki≤0.1 nM)) | A (A represents a pEC50 value≥7.5 (EC50≤32 nM)) | A (A represents a pEC50 value≥7.5 (EC50≤32 nM)) |  |  |  | 
Cc1cc(Nc2cc3ncccc3c(N[C@@H]3C[C@H]4CCC[C@@H](C3)N4C(=O)c3cncc(C#N)c3)n2)n[nH]1 [Example 2-26] | B (B represents a pKi value between 9 and 10 (Ki between 1 nM and 0.1 nM)) |  |  | B (B represents a pKi value between 9 and 10 (Ki between 1 nM and 0.1 nM)) |  | C (C represents a pEC50 value<6.7 (EC50>200 nM)) |  |  |  | 
Cc1cc(Nc2cc3ncccc3c(N[C@@H]3C[C@H]4CC[C@@H](C3)N4S(=O)(=O)C(C)C)n2)n[nH]1 [Example 4-2] |  |  |  |  |  |  | 0.1 to 1 | 0.1 to 1 | < 31.6 | < 31.6
COc1ccnc2cc(Nc3cc(C)[nH]n3)nc(N[C@@H]3C[C@H]4CC[C@@H](C3)N4CCC#N)c12 [Example 7-6] | B (B represents a pKi value between 9 and 10 (Ki between 1 nM and 0.1 nM)) | A (A represents a pEC50 value≥7.5 (EC50≤32 nM)) | B (B represents a pEC50 value between 6.7 and 7.5 (EC50 between 200 nM and 32 nM)) | B (B represents a pKi value between 9 and 10 (Ki between 1 nM and 0.1 nM)) |  |  |  |  |  | 
Cc1cc(Nc2cc3nc(CO)ccc3c(N[C@@H]3C[C@H]4CC[C@@H](C3)N4CCCF)n2)n[nH]1 [Example 5-14] | B (B represents a pKi value between 9 and 10 (Ki between 1 nM and 0.1 nM)) |  |  | B (B represents a pKi value between 9 and 10 (Ki between 1 nM and 0.1 nM)) | B (B represents a pEC50 value between 6.7 and 7.5 (EC50 between 200 nM and 32 nM)) | B (B represents a pEC50 value between 6.7 and 7.5 (EC50 between 200 nM and 32 nM)) |  |  |  | 
CCC1(S(=O)(=O)N2[C@@H]3CCC[C@H]2C[C@H](Nc2nc(Nc4cc(C)[nH]n4)cc4ncccc24)C3)CC1 [Example 4-20] | A (A represents a pKi value≥10 (Ki≤0.1 nM)) |  |  |  | A (A represents a pEC50 value≥7.5 (EC50≤32 nM)) | A (A represents a pEC50 value≥7.5 (EC50≤32 nM)) |  |  |  | 
Cc1cc(Nc2cc3ncccc3c(N[C@@H]3C[C@H]4CCC[C@@H](C3)N4C(=O)c3ccnc(C#N)c3)n2)n[nH]1 [Example 2-30] | B (B represents a pKi value between 9 and 10 (Ki between 1 nM and 0.1 nM)) |  |  | B (B represents a pKi value between 9 and 10 (Ki between 1 nM and 0.1 nM)) |  | C (C represents a pEC50 value<6.7 (EC50>200 nM)) |  |  |  | 
Cc1cnc2cc(Nc3cc(C)[nH]n3)nc(N[C@@H]3C[C@H]4CCC[C@@H](C3)N4S(=O)(=O)N3CC(C#N)C3)c2c1 [Example 6-9] | A (A represents a pKi value≥10 (Ki≤0.1 nM)) | A (A represents a pEC50 value≥7.5 (EC50≤32 nM)) | A (A represents a pEC50 value≥7.5 (EC50≤32 nM)) |  |  |  |  |  |  | 
Cc1cc(Nc2cc3nc(CN4CCOCC4)ccc3c(N[C@@H]3C[C@H]4CCC[C@@H](C3)N4S(=O)(=O)c3cncc(F)c3)n2)n[nH]1 [Example 5-30] | A (A represents a pKi value≥10 (Ki≤0.1 nM)) |  |  |  | A (A represents a pEC50 value≥7.5 (EC50≤32 nM)) | A (A represents a pEC50 value≥7.5 (EC50≤32 nM)) |  |  |  | 
Cc1cc(Nc2cc3ncccc3c(N[C@@H]3C[C@H]4CCC[C@@H](C3)N4C(=O)c3ccccc3)n2)n[nH]1 [Example 2-25] | A (A represents a pKi value≥10 (Ki≤0.1 nM)) |  |  |  | A (A represents a pEC50 value≥7.5 (EC50≤32 nM)) | A (A represents a pEC50 value≥7.5 (EC50≤32 nM)) |  |  |  | 
CCC(C)OC(=O)N1[C@@H]2CCC[C@H]1C[C@H](Nc1nc(Nc3cc(C)[nH]n3)cc3ncccc13)C2 (some centres unmarked) [Example 3-12] | B (B represents a pKi value between 9 and 10 (Ki between 1 nM and 0.1 nM)) |  |  | B (B represents a pKi value between 9 and 10 (Ki between 1 nM and 0.1 nM)) |  | B (B represents a pEC50 value between 6.7 and 7.5 (EC50 between 200 nM and 32 nM)) |  |  |  | 
Cc1cc(Nc2cc3ncccc3c(N[C@@H]3C[C@H]4CCC[C@@H](C3)N4C(=O)CCC(C)C)n2)n[nH]1 [Example 2-31] | B (B represents a pKi value between 9 and 10 (Ki between 1 nM and 0.1 nM)) |  |  | B (B represents a pKi value between 9 and 10 (Ki between 1 nM and 0.1 nM)) |  | B (B represents a pEC50 value between 6.7 and 7.5 (EC50 between 200 nM and 32 nM)) |  |  |  | 
Cc1cc(Nc2cc3ncc(S(C)(=O)=O)cc3c(N[C@@H]3C[C@H]4CCC[C@@H](C3)N4Cc3ccncc3)n2)n[nH]1 [Example 6-60] | A (A represents a pKi value≥10 (Ki≤0.1 nM)) |  | B (B represents a pEC50 value between 6.7 and 7.5 (EC50 between 200 nM and 32 nM)) | A (A represents a pKi value≥10 (Ki≤0.1 nM)) |  |  |  |  |  | 
